Test results published in patent US20220227772A1, “DEUTERATED TRIAZOLOPYRIMIDINES” (THE TRUSTEES OF THE UNIVERSITY OF PENNSYLVANIA, priority 2019, published 2022).
Like-named read-outs stand apart in the source and are kept apart here.

Experiments:
[1] = system: acetylated α-tubulin in QBI293 cells; experiment: QBI293 cell-based microtubule stabilization assay, acetyl-tubulin ELISA; conditions: 4 h incubation
Method: (§1) The HEK293 cell subclone, QBI293, was maintained in DMEM supplemented with 10% fetal calf or bovine serum, 1% penicillin/streptomycin antibiotic solution and 1% glutamine at 37° C. in 5% CO2. Cells were plated into 6-well plates at a density of 800,000 cells/well. […] Test compounds were added at multiple concentrations to the test wells and incubated for 4 h. Subsequently, the media was removed and the cells were washed with 1 mL of ice-cold phosphate-buffered saline (PBS). After removal of PBS, 0.2 mL of ice-cold RIPA (0.5% sodium deoxycholate, 0.1% SDS, 1% NP-40, 5 mM EDTA, pH 8.0) containing protease inhibitor mix (1 μg/mL each of pepstatin, leupeptin, TLCK, TPCK and trypsin inhibitor), 1 mM PMSF and 1 μM trichostatin A was added to the wells. The wells were then scraped using a cell scraper and pipetted into 1.5 mL microfuge tubes. The tubes were sonicated with a handheld sonicator at 20× on a power setting of 2, followed by centrifugation for 30 min at 15,000 rpm at […]. Supernatants were removed and quantified for protein concentration and the acetyl-tubulin levels were determined using an ELISA as described.
(§2) The enzyme-linked immunosorbent assay (ELISA) was performed as previously described in Brunden, 2011, Pharmacological Research, 63:341, which is incorporated by reference herein. Briefly, 384-well plates were coated with 12G10 α-tubulin antibody (10 μg/mL; Covance, Princeton, N.J., USA) in 30 μL of cold 0.1 M bicarbonate buffer. 12G10 anti-α-tubulin antibody was originally deposited to the Developmental Studies Hybridoma Bank by Frankel and Nelsen. After overnight incubation at 4° C., the plates were blocked in Block Ace solution (Bio-Rad, Hercules, Calif., USA) for a minimum of 24 hours at 4° C. QBI-293 cell homogenates were diluted in C buffer (0.02 M sodium phosphate, 2 mM EDTA, 0.4 M NaCl, 1% BSA, 0.005% Thimerosal, pH 7.0). Typically, […] dilutions from 266 ng/μL to 22.2 ng/μL for QBI cells were performed and 30 μL of sample were added to wells in duplicate. Plates were sealed, centrifuged, and incubated overnight at 4° C. Following incubation with antigen, wells were aspirated and washed with PBS containing 0.05% Tween-20 and 0.005% thimerosal (PBS-Tween buffer). A horseradish peroxidase (HRP)-acetyl-tubulin reporter antibody was prepared by conjugating acetyl-tubulin primary antibody (Sigma Aldrich; clone 6-11B-1) to HRP using a commercially-available peroxidase labeling kit (Roche Applied Science, Indianapolis, Ind., USA). The HRP-acetyl-tubulin reporter antibody (1:1,000 v/v; Sigma Aldrich) or pre-conjugated HRP-alpha-tubulin (1:5,000 v/v; ProteinTech Group, Chicago, Ill., USA) diluted in C buffer were added to appropriate wells (30 μL per well). The plates were sealed and incubated at room temperature for 4 hours on a platform rocker, followed by washing with PBS-Tween buffer. Peroxidase substrate solution (30 μL; KPL, Gaithersburg, Md., USA) was added to each well and the reaction was quenched after 10 min with 10% phosphoric acid (30 μL). Plates were read on a SpectraMax M5 plate reader at an absorbance of 450 nm. The amount of acetyl- and alpha-tubulin protein in each sample was extrapolated using standard curves generated from serial dilutions of known protein standard (acetyl- or alpha-tubulin) concentrations.
(§3) The compounds were evaluated in a QBI293 cell-based MT assay as described in Kovalevich et al., J. Pharmacol. Exp. Ther., 2016, 357, 432-50, which is incorporated by reference herein. In summary, acetylated α-tubulin and total α-tubulin levels were determined by ELISA in cell lysates after 4 h of incubation with test compound at 1 and 10 μM (Table 1).

[2] = Plasma and brain compound levels in wild-type mice; assay type: in vivo, mouse; conditions: for Kp at 1 h: brain/plasma, read-out: B/P
Method: Mouse brains were homogenized in 10 mM ammonium acetate, pH 5.7 (1:2; w/v) using a handheld sonic homogenizer. Mouse plasma was obtained from blood that was collected into a 1.5 mL tube containing 0.5M EDTA solution and which was centrifuged for 10 minutes at 4500 g at […]. Aliquots (50 μL) of brain homogenates (50% w/v in 100 mM NH4OAc pH 5.75) or plasma were mixed with 0.2 ml of acetonitrile, centrifuged at 15,000 g, and the resulting supernatant was used for subsequent LC-MS/MS analysis. Compounds were detected using multiple reaction monitoring (MRM) of their specific collision-induced ion transitions. Samples were separated on an Agilent Zorbax C8 column (3.5 μm, 2.1×50 mm) at 35° C., with mobile phase A of 0.1% (v/v) formic acid, and B of acetonitrile with 0.1% (v/v) formic acid and a gradient of increasing B at 0.4 mL/min. To account for possible matrix effects on analytes, standard curves were generated for each compound from brain homogenate and plasma samples. The standard curve samples were extracted and analyzed in an identical fashion as the corresponding tissue-derived samples, and peak areas were plotted against concentration and a linear regression curve was used to obtain estimated concentrations of the tissue-derived samples using the peak areas. […]

[3] = system: total α-tubulin in QBI293 cells; experiment: QBI293 cell-based MT assay, alpha-tubulin ELISA; conditions: 4 h incubation
Method: as §1, §2, §3

[4] = female, mouse, brain, intraperitoneal, 1 h @ 2.5 mg/kg, read-out: Brain conc.
[5] = female, mouse, intraperitoneal, 1 h @ 2.5 mg/kg
[6] = female, mouse, plasma, intraperitoneal, 1 h @ 2.5 mg/kg, read-out: Plasma conc.
[7] = scaled to 5 mg/kg, read-out: Brain conc.
[8] = mouse, brain, 1 h @ 5.0 mg/kg, read-out: Brain conc.
[9] = mouse, plasma, 1 h @ 5.0 mg/kg, read-out: Plasma conc.

Row | SMILES | AcTub (acetylated-tubulin relative to vehicle-treated cells) ([1]; 1 μM) | AcTub (acetylated-tubulin relative to vehicle-treated cells) ([1]; 10 μM) | αTub (α-tubulin relative to vehicle-treated cells) ([3]; 1 μM) | αTub (α-tubulin relative to vehicle-treated cells) ([3]; 10 μM) | further results
1 | [2H][C@](C)(Nc1c(-c2c(F)cc(F)cc2F)c(Cl)nc2ncnn12)C(C)(C)C (single isomer, unassigned) | 5.71 ± 0.13 | 7.69 ± 0.49 | 1.00 ± 0.03 | 1.05 ± 0.09 | concentration at 1 h [2, 4]: 296 ± 48 nM; Kp at 1 h [2, 5]: 2.9; concentration at 1 h [2, 6]: 104 ± 14 nM; Plasma conc. ([2]; scaled to 5 mg/kg): 208 nM; concentration at 1 h [2, 7]: 592 nM
2 | [2H][C@@](C)(Nc1c(-c2c(F)cc(F)cc2F)c(Cl)nc2ncnn12)C(C)(C)C (single isomer, unassigned) | 1.10 ± 0.07 | 2.92 ± 0.04 | 1.07 ± 0.05 | 0.85 ± 0.05 | –
3 | [2H]C(C)(Nc1c(-c2c(F)cc(F)cc2F)c(Cl)nc2ncnn12)C(C)C (single isomer, unassigned) [5-chloro-N-(3-methylbutan-2-yl-2-d)-6-(2,4,6-trifluorophenyl)-[1,2,4]triazolo[1,5-a]pyrimidin-7-amine] | – | – | – | – | concentration at 1 h [2, 4]: 551 ± 56 nM; Kp at 1 h [2, 5]: 2.8; concentration at 1 h [2, 6]: 199 ± 46 nM
4 | [2H]C(C)(Nc1c(-c2c(F)cc(F)cc2F)c(Cl)nc2ncnn12)C(C)C (single isomer, unassigned) [5-chloro-N-(3-methylbutan-2-yl-2-d)-6-(2,4,6-trifluorophenyl] [5-chloro-N-(3-methylbutan-2-yl-2-d)-6-(2,4,6-trifluorophenyl)-[1,2,4]triazolo[1,5-a]pyrimidin-7-amine] | – | – | – | – | Plasma conc. ([2]; scaled to 5 mg/kg): 398 nM; concentration at 1 h [2, 7]: 1102 nM; αTub (α-tubulin relative to vehicle-treated cells) ([3]; 1 μM, enantiomer 1): 1.16 ± 0.04; αTub (α-tubulin relative to vehicle-treated cells) ([3]; 1 μM, enantiomer 2): 0.93 ± 0.05; αTub (α-tubulin relative to vehicle-treated cells) ([3]; 10 μM, enantiomer 1): 1.20 ± 0.01; αTub (α-tubulin relative to vehicle-treated cells) ([3]; 10 μM, enantiomer 2): 0.93 ± 0.02
5 | C[C@@H](Nc1c(-c2c(F)cc(F)cc2F)c(Cl)nc2ncnn12)C(C)(C)C [(R)-5-chloro-N-(3,3-dimethylbutan-2-yl)-6-(2,4,6-trifluorophenyl)-[1,2,4]triazolo[1,5-a]pyrimidin-7-amine] | 5.11 ± 0.47 | 7.19 ± 0.31 | 1.00 ± 0.06 | 1.03 ± 0.12 | concentration at 1 h [2, 8]: 153 ± 33 nM; Kp at 1 h ([2]; mouse, 1 h @ 5.0 mg/kg): 2.2; concentration at 1 h [2, 9]: 69 ± 11 nM
6 | CC(C)[C@@H](C)Nc1c(-c2c(F)cc(F)cc2F)c(Cl)nc2ncnn12 [(R)-5-chloro-N-(3-methylbutan-2-yl)-6-(2,4,6-trifluorophenyl)-[1,2,4]triazolo[1,5-a]pyrimidin-7-amine] | 2.08 ± 0.09 | 2.54 ± 0.10 | 1.10 ± 0.20 | 0.91 ± 0.17 | concentration at 1 h [2, 8]: 812 ± 61 nM; Kp at 1 h ([2]; mouse, 1 h @ 5.0 mg/kg): 2.5; concentration at 1 h [2, 9]: 320 ± 93 nM
7 | C[C@H](Nc1c(-c2c(F)cc(F)cc2F)c(Cl)nc2ncnn12)C(C)(C)C [(S)-5-chloro-N-(3,3-dimethylbutan-2-yl)-6-(2,4,6-trifluorophenyl)-[1,2,4]triazolo[1,5-a]pyrimidin-7-amine] | 1.03 ± 0.01 | 3.05 ± 0.18 | 0.80 ± 0.06 | 0.83 ± 0.06 | –
8 | CC(C)[C@H](C)Nc1c(-c2c(F)cc(F)cc2F)c(Cl)nc2ncnn12 [(S)-5-chloro-N-(3-methylbutan-2-yl)-6-(2,4,6-trifluorophenyl)-[1,2,4]triazolo[1,5-a]pyrimidin-7-amine] | 1.22 ± 0.10 | 2.46 ± 0.18 | 0.94 ± 0.04 | 0.88 ± 0.02 | –
